The subject of data set [1] is Neisseria gonorrhoeae. In words: Antigonococcal activity, MIC by agar dilution, relative to trimethoprim. The data set is classed as cell-based. To be noted: expressed as activity versus TMP activity, 17 strains; for Antigonococcal Activity v.N.gonorrhaeae W.S.T.A. (Repeat Examination) / Antigonococcal Activity v.N.gonorrhaeae W.S.T.A.: Wellcotest Sensitivity Test Agar; for Antigonococcal Activity v.N.gonorrhaeae W.S.T.A. (Repeat Examination): standardised inocula, 48 hours incubation; for Antigonococcal Activity v.N.gonorrhaeae W.S.T.A.: Screening Examination, 24 hours incubation; for Antigonococcal Activity v.N.gonorrhaeae G.C.A.: Difco G.C. Agar. The procedure: (§1) The antigonococcal activity of 2,4-diamino-(3,5-diethyl-4-hydroxybenzyl)pyrimidine (compound 1), 2,4-diamino-(4-hydroxy-3,5-di-n-propylbenzyl)pyrimidine (compound 2), 2,4-diamino-(3-ethyl-4-hydroxy-5-n-propylbenzyl)pyrimidine (compound 3),24-diamino-(4-hydroxy-3,5-di-i-propylbenzyl)pyrimidine (compound 4) and 2,4-·diamino-·(3,5-di--t-butyl-4-hydroxybenzyl) pyrimidine (compound 5) and the antimeningococcal activity of compounds 2,3 and 4 were determined […] by the following methods. The activities were measured against 17 strains of Neisseria gonorrhoeae and 5 strains of Neisseria meningitidis in Wellcotest Sensitivity Test Agar supplemented with 5$ heated horse blood and 5% unheated lysed horse blood, In practice, 5% blood was added to 500ml quantities of the medium at 56°C and, after being placed in a 80°C water bath for 15 minutes and then cooled to 56°C, the lysed blood and the test compounds were added. The medium was then immediately poured into plates. The test compounds were dissolved as the isothionates.
(§2) In the Screening Examination, which consisted of 6 separate tests, the minimum inhibitory concentrations (MIC's) were determined in one-third interval dilutions and then reexamined in one-half interval dilution.
(§3) The inoculum in the Screening Examination was from an 18-hour Mueller-Hinton heated-blood broth culture, and applied with a lmm loop which was streaked along lcm.. Because the amount of growth produced by the strains varied, the inocula was not constant in these tests, in the Repeat Examination, the inocula were standardised to give "just confluent'' growth. The MIC's were read as that concentration which produced 90% or more inhibition of growth as compared macroscopically with that of the control growth. The incubation period for the Screening Examination was 24 hours and for the Repeat Examination 48 hours.
(§4) As standards, Escherichia coli (CN 314 ) and trimethoprim (TMP) were included in each test.
(§5) Using the above method the activities of compound 5 was measured against the same 17 strains of Neisseria gonorrhoeae and 5 strains of Neisseria meningitidis in Difco G.C. Agar.
A general note: In agar dilution the substance is mixed into plates at graded concentrations.

Data set [2] concerns Neisseria meningitidis. Briefly: Antimeningococcal activity, MIC by agar dilution, relative to trimethoprim. It counts as cell-based. The conditions noted are these: expressed as activity versus TMP activity; 5 strains. The procedure: as §1, §2, §3, §4, §5
For data set [3], the system named is Escherichia coli (CN 314 ). Briefly: Activity against standard organism E. coli, MIC by agar dilution, relative to trimethoprim. The data set is classed as cell-based. The conditions noted are these: expressed as activity versus TMP activity. The procedure: The medium was then immediately poured into plates. The test compounds were dissolved as the isothionates. […] Because the amount of growth produced by the strains varied, the inocula was not constant in these tests, in the Repeat Examination, the inocula were standardised to give "just confluent'' growth. The MIC's were read as that concentration which produced 90% or more inhibition of growth as compared macroscopically with that of the control growth. The incubation period for the Screening Examination was 24 hours and for the Repeat Examination 48 hours. As standards, Escherichia coli (CN 314 ) and trimethoprim (TMP) were included in each test.

A short description of data set [4]: Blood, urine and tissue concentrations in mice after oral administration (microbiological assay with Bacillus pumilus). To be noted: 2mg/mouse P.O.; for Urine Direct (percentage in brackets): appears to be direct urine concentration as percent of that after Glusalase; for concentration at 1 h / concentration at 2 h / concentration at 4 h: po; for concentration at 1 h: 1 hour after dosing, read-out: Conc. in blood at 1HR; for concentration at 2 h: 2 hours after dosing, read-out: Conc. in blood at 2HR. The data set is classed as in vivo. On the procedure:
Also shown in Table 1 is the concentration of each of the compounds in the blood urine and tissues of mice after oral administration. These concent rations were determined as described hereafter. The compounds, suspended in 0.1% methylcellulose, were administered by stomach tube to groups of 3 mice, the dose was 2.0mg per 20g mouse and blood was collected from the orbital sinus at 1, 2 and 4 hours after the dosing. Urine was collected directly from each animal at the 4th hour, after which the animals were killed. Liver, lung, brain and muscle was taken from each animal and homogenised in an equal volume (w/v) of water in a Polytron Homogenizer. The suspensions were taken to be 1:2 extracts of the tissues.
The concentrations of the drugs were determined microbiologically, using Bacillus pumilus, those in the urine determined both before and after 18 hours incubation with Glusalase (gluecuronidase and sulfatase).

Data set [5] can be described thus: Acute oral toxicity in rats. The conditions noted are these: rat, in vivo.
A short description of data set [6]: Acute oral toxicity in mice. The conditions noted are these: mouse, in vivo.
The mark [7] stands for this setting: blood, 4 hours after dosing, read-out: Conc. in blood at 4HR.
The mark [8] stands for this setting: brain, 4 hours, tissue homogenate, read-out: Concentration at 4HRS in: Brain.
Setting [9] is: liver, 4 hours, tissue homogenate, read-out: Concentration at 4HRS in: Liver.
The mark [10] stands for this setting: lung, 4 hours, tissue homogenate, read-out: Concentration at 4HRS in: Lung.
Where [11] appears, read: muscle, 4 hours, tissue homogenate, read-out: Concentration at 4HRS in: Muscle.
Setting [12] is: 4 hours, urine after 18 hours incubation with Glusalase (glucuronidase and sulfatase), read-out: Concentration at 4HRS in: Urine After glacolase.
Setting [13] is: 4 hours, urine before incubation with Glusalase, read-out: Concentration at 4HRS in: Urine Direct.

Structures can show the parent of a compound that is named as a salt. Where two headings read alike, the source gives them in different places. Marks after values point to notes of the source that are not given here. Where only a bound is given, the exact number is not on record here.

For `CCCc1cc(Cc2cnc(N)nc2N)cc(CC)c1O` [COMPOUND 3, 2,4-diamino-(3-ethyl-4-hydroxy-5-n-propylbenzyl)pyrimidine], the “Antigonococcal Activity v.N.gonorrhaeae W.S.T.A. (Repeat Examination)” value in data set [1] was 18^**. The “Antigonococcal Activity v.N.gonorrhaeae W.S.T.A.” value in data set [1] was 21. Further, the “Antigonococcal Activity v.N.meningitidis” value in data set [2] turned out to be 7. Besides, the “Antigonococcal Activity v.E.coli (CN314)” value in data set [3] is over 0.1. Further, the “Urine Direct (percentage in brackets)” value in data set [4] (4 hours) is given as 2.2%. Also, the concentration at 1 h in data set [4] (blood) came out at 0.88 µg/mL. Also, in data set [4] (blood), the concentration at 2 h came out at 0.9 µg/mL. The concentration at 4 h in data set [4] (setting [7]) was determined as 0.8 µg/mL; in data set [4] (setting [8]), 0.44 µg/mL; in data set [4] (setting [9]), 5 µg/mL; in data set [4] (setting [10]), 3.6 µg/mL; in data set [4] (setting [11]), 0.21 µg/mL; in data set [4] (setting [12]), 1800 µg/mL. The concentration at 4 h in data set [4] (setting [13]) amounted to 39 µg/mL.
In the case of `CC(C)c1cc(Cc2cnc(N)nc2N)cc(C(C)C)c1O` [COMPOUND 4, 24-diamino-(4-hydroxy-3,5-di-i-propylbenzyl)pyrimidine], the “Antigonococcal Activity v.N.gonorrhaeae G.C.A.” value in data set [1] was 13. Besides, in data set [1], the “Antigonococcal Activity v.N.gonorrhaeae W.S.T.A. (Repeat Examination)” value is on record as 17^**. For the same molecule, in data set [1], the “Antigonococcal Activity v.N.gonorrhaeae W.S.T.A.” value worked out at 18. In addition, the “Antigonococcal Activity v.N.meningitidis” value in data set [2] was 7. Besides, in data set [3], the “Antigonococcal Activity v.E.coli (CN314)” value stood at 0.03. Besides, in data set [4] (4 hours), the “Urine Direct (percentage in brackets)” value was found to be 50%. For the same molecule, in data set [4] (blood), the concentration at 1 h turned out to be 1.38 µg/mL. Moreover, in data set [4] (blood), the concentration at 2 h was 1.08 µg/mL. For the same molecule, the concentration at 4 h was 0.65 µg/mL in data set [4] (setting [7]); 0.46 µg/mL in data set [4] (setting [8]); 8.3 µg/mL in data set [4] (setting [9]); 2.6 µg/mL in data set [4] (setting [10]); under 0.03 µg/mL in data set [4] (setting [11]); 190 µg/mL in data set [4] (setting [12]). Besides, in data set [4] (setting [13]), the concentration at 4 h stood at 95 µg/mL.
For `COc1cc(Cc2cnc(N)nc2N)cc(OC)c1OC` [TMP, 2,4-diamino-5-(3,4,5-trimethoxybenzyl)pyrimidine, reference compound], in data set [1], the “Antigonococcal Activity v.N.gonorrhaeae G.C.A.” value is listed as 1. In addition, the “Antigonococcal Activity v.N.gonorrhaeae W.S.T.A. (Repeat Examination)” value in data set [1] was determined as 1. Moreover, in data set [1], the “Antigonococcal Activity v.N.gonorrhaeae W.S.T.A.” value stood at 1. The “Antigonococcal Activity v.N.meningitidis” value in data set [2] is 1. Also, in data set [3], the “Antigonococcal Activity v.E.coli (CN314)” value is reported as 1. Further, the “Urine Direct (percentage in brackets)” value in data set [4] (4 hours) is on record as 50%. In addition, the concentration at 1 h in data set [4] (blood) turned out to be 2.15 µg/mL. The concentration at 2 h in data set [4] (blood) was determined as 0.28 µg/mL. In addition, the concentration at 4 h in data set [4] (setting [7]) was under 0.02 µg/mL; in data set [4] (setting [8]), under 0.04 µg/mL; in data set [4] (setting [9]), 1.08 µg/mL; in data set [4] (setting [11]), under 0.04 µg/mL; in data set [4] (setting [12]) it was 400 µg/mL; in data set [4] (setting [13]), 200 µg/mL.
Consider `CC(C)(C)c1cc(Cc2cnc(N)nc2N)cc(C(C)(C)C)c1O` [COMPOUND 5, 2,4-·diamino-·(3,5-di--t-butyl-4-hydroxybenzyl) pyrimidine], for which the “Antigonococcal Activity v.N.gonorrhaeae G.C.A.” value in data set [1] worked out at 7. Moreover, the “Urine Direct (percentage in brackets)” value in data set [4] (4 hours) amounted to 42%. Besides, the concentration at 1 h in data set [4] (blood) worked out at 4.25 µg/mL. Further, in data set [4] (blood), the concentration at 2 h was 4 µg/mL. In addition, the concentration at 4 h in data set [4] (setting [7]) was 3 µg/mL; in data set [4] (setting [8]), 4.4 µg/mL; in data set [4] (setting [9]), 6 µg/mL; in data set [4] (setting [10]), 11.2 µg/mL; in data set [4] (setting [11]), under 0.26 µg/mL; in data set [4] (setting [12]), 240 µg/mL. For the same molecule, the concentration at 4 h in data set [4] (setting [13]) is 100 µg/mL.
For the molecule `CC(C)c1cc(Cc2cnc(N)nc2N)cc(C(C)C)c1O` [2,4-diamino-5-(3,5-diisopropyl-4-hvdroxyberzyl) pyrimidine lactate salt], the LD50 (commonly the dose expected to kill half of the subjects tested) in data set [5] is over 100 mg/kg; in data set [6] (female mice, read-out: LD50 (mice) female) it was 2890 mg/kg; in data set [6] (male mice, read-out: LD50 (mice) male), 2830 mg/kg.
As to `CCc1cc(Cc2cnc(N)nc2N)cc(CC)c1O` [COMPOUND 1, 2,4-diamino-(3,5-diethyl-4-hydroxybenzyl)pyrimidine], in data set [1], the “Antigonococcal Activity v.N.gonorrhaeae W.S.T.A.” value is 7. The “Urine Direct (percentage in brackets)” value in data set [4] (4 hours) was 7%. Also, the concentration at 1 h in data set [4] (blood) worked out at 1.11 µg/mL. Further, the concentration at 2 h in data set [4] (blood) came out at 0.41 µg/mL. Besides, the concentration at 4 h in data set [4] (setting [7]) was 0.4 µg/mL; in data set [4] (setting [8]) it was 0.34 µg/mL; in data set [4] (setting [9]) it was 1.94 µg/mL; in data set [4] (setting [10]), 1.75 µg/mL; in data set [4] (setting [11]), under 0.03 µg/mL; in data set [4] (setting [12]), 790 µg/mL. The concentration at 4 h in data set [4] (setting [13]) amounted to 56 µg/mL.
As for `CCCc1cc(Cc2cnc(N)nc2N)cc(CCC)c1O` [COMPOUND 2, 2,4-diamino-(4-hydroxy-3,5-di-n-propylbenzyl)pyrimidine], the “Antigonococcal Activity v.N.gonorrhaeae W.S.T.A. (Repeat Examination)” value in data set [1] is 17^**. In data set [1], the “Antigonococcal Activity v.N.gonorrhaeae W.S.T.A.” value is given as 21. For the same molecule, the “Antigonococcal Activity v.N.meningitidis” value in data set [2] is given as 11. The “Antigonococcal Activity v.E.coli (CN314)” value in data set [3] is recorded as 0.03. The “Urine Direct (percentage in brackets)” value in data set [4] (4 hours) is 2.5%. The concentration at 1 h in data set [4] (blood) is 1.36 µg/mL. The concentration at 2 h in data set [4] (blood) was found to be 0.5 µg/mL. The concentration at 4 h in data set [4] (setting [7]) was 0.44 µg/mL; in data set [4] (setting [8]) it was 0.5 µg/mL; in data set [4] (setting [9]), 3.75 µg/mL; in data set [4] (setting [10]) it was 1.8 µg/mL; in data set [4] (setting [11]), under 0.03 µg/mL; in data set [4] (setting [12]), 650 µg/mL. The concentration at 4 h in data set [4] (setting [13]) was 16 µg/mL.

The values above are taken from patent EP0006987A1, “2,4-Diamino-5-benzylpyrimidines, especially for the treatment of microbial infections, pharmaceutical compositions containing these compounds and processes for preparing these compounds” (THE WELLCOME FOUNDATION LIMITED, priority 1978, dated 1980).
